According to US7273884B2, “Method of treating tremors” (Eisai, Inc., priority 2002, dated 2007):
Read-outs that look alike come from different tables or passages of the source.

How the values were obtained:
NMDA receptor = details: noncompetitive NMDA channel blocker; cited from earlier work
[1] = test system: voltage-gated sodium channels; details: in vitro; cited from earlier work
T-type Ca2+ currents = details: in vitro; cited from earlier work
[2] = rats; cited from earlier work
[3] = rats, cortical tungstic acid gel; cited from earlier work
[4] = one patient; treatment with zonisamide, clonazepam and valpolate; cited from earlier work
[5] = Zonisamide treatment of tremor patients at an outpatient neurology clinic; assay type: in vivo, human
Method: Zonisamide was used in treatment of patients at an outpatient neurology clinic, which provided the following results. […] For intractable essential tremor, 10 patients (age range: 46 to 82) were identified who were either intolerant to, or failed on, primidone or propranolol therapy. The dosage of zonisamide to these patients was 100 mg to a maximum of 200 mg once daily. The study dose was continued for at least 12 weeks unless discontinued earlier due to side effects.

[6] = patients; cited from earlier work
[7] = cats, electrical stimulation of the visual cortex; cited from earlier work
rat hippocampal slices = details: 10-30 μg/mL; cited from earlier work
[8] = kindled rat; cited from earlier work
[9] = cats, cortical freezing; cited from earlier work
[10] = test system: cultured mouse spinal cord neurons; details: 10-30 μg/mL; cited from earlier work
[11] = test system: GABA/benzodiazepine receptor ionophore complex; details: in vitro; does not produce changes in chloride flux; cited from earlier work
[12] = test system: dopaminergic and serotonergic neurotransmission; details: in vivo microdialysis; cited from earlier work
[13] = 50-200 mg/day in addition to anti-Parkinson Disease drug; cited from earlier work
[14] = general clinical practice, first line therapy; cited from earlier work
[15] = delivered intraperitoneally; severity dose dependent; cited from earlier work
[16] = Harmaline-induced tremor in rats (tremor monitoring cage, 8-12 Hz vs 0-15 Hz motion); assay type: in vivo, Sprague-Dawley rats
Method: Six female Sprague-Dawley rats were treated with i.p. saline and placed in a tremor monitoring cage for 30 minutes of baseline recording. They then received 10 mg/kg harmaline i.p. to induce tremor. Recording of the harmaline-induced tremor began 15 minutes after the harmaline injection and continued for up to 2½ hours.
A transducer connected to the cage floor recorded motion, which was processed by Fourier transform and spectral analysis. Motion at 8-12 Hz (the range in which the tremor occurs) was compared to the full spectrum of motion recorded (0-15 Hz).
To analyze the reduction of tremor caused by treatment agents, a Convuls-1 pressure sensitive transducer system is used. Convuls-1 is designed to objectively quantify convulsive or tremorous activity in small laboratory animals. An unrestrained animal is placed within a chamber that resides upon a sensing platform. […] The static force exerted by the weight of the platform and animal is not recorded. […] Output power is recorded digitally and analyzed for change of frequency and power using the Dataware A/D converted and software.
The data is analyzed in one minute bins. For each bin, the total power of 0-15 Hz and the total power at 8-12 Hz is calculated. The data is then converted into Excel and the ratio of 8-12 Hz/0-15 Hz power is calculated. […]

[17] = patients at outpatient neurology clinic

C[C@]12N[C@H](Cc3ccccc31)c1ccccc12 [MK-801]
tremorogenic actions of harmaline (NMDA receptor): could block the tremorogenic actions of harmaline

NS(=O)(=O)Cc1noc2ccccc12 [zonisamide, 1,2-benzisoxazole-3-methanesulfonamide]
effect on voltage-gated sodium channels [1]: blocks voltage-gated sodium channels
effect on voltage-dependent, transient inward calcium currents (T-type Ca2+ currents): reduces voltage-dependent, transient inward calcium currents
oral dose effective in anticonvulsant models [2]: 20 mg/kg
interictal spikes and secondarily generalized seizures [3]: suppressed both interictal spikes and the secondarily generalized seizures
symptoms of cortical myoclonic tremor [4]: improved
patients responding ([5]; Parkinsonian tremor): two out of four responded
quality of life ([5]; intractable essential tremor responders, 100 mg to 200 mg once daily): reported a better quality of life
patients responding by reduction in tremor ([5]; intractable essential tremor, 10 patients intolerant to or failed on primidone or propranolol, 100 mg to 200 mg once daily, at least 12 weeks): four patients responded by reduction in tremor of greater than 50%
patients responding ([5]; mixed tremor (non-essential, secondary to trauma or multiple sclerosis)): two out of two patients responded
patients responding ([5]; multi-infarct-related (2 or more minor strokes) tremor): one out of two patients responded
adverse reactions experienced in treatment [5, 17]: GI upset, somnolence and skin rash
kidney stones and anhydrosis (lack of sweating) [5, 17]: not encountered
tremor developed after administration [6]: two patients developed resting and postural hand tremor
duration of cortical focal seizures [7]: reduction in the duration of cortical focal seizures
neuronal or glial uptake of [3H]-GABA (rat hippocampal slices): without affecting
threshold for generalized seizures [8]: increase in threshold for generalized seizures
interictal spikes and secondarily generalized seizures [9]: suppressed both interictal spikes and the secondarily generalized seizures
postsynaptic GABA or glutamate responses [10]: without affecting
synaptically-driven electrical activity [10]: suppresses synaptically-driven electrical activity
binding to GABA/benzodiazepine receptor ionophore complex [11]: binds to the GABA/benzodiazepine receptor ionophore complex in an allosteric fashion
dopaminergic and serotonergic neurotransmission [12]: facilitates both dopaminergic and serotonergic neurotransmission
symptoms of patients [13]: showed lessening of symptoms

CC(C)NCC(O)COc1cccc2ccccc12 (stereo not drawn) [propranolol]
efficacy in ET [14]: proven efficacy in ET

COc1ccc2c3c([nH]c2c1)C(C)=NCC3 [harmaline]
effective dose range for tremor induction [15]: 10 to 50 mg/kg
stability of tremor-inducing effect ([16]; 10 mg/kg harmaline i.p., female Sprague-Dawley rats): stable for over two hours
ratio of 8-12 Hz/0-15 Hz power ([16]; harmaline-treated rats (control rats 15-30%)): 60-80%
